Experimental data reported in US9695155B2, “Herbicidal substituted pyrimidinyloxy benzene compounds” (E. I. DU PONT DE NEMOURS AND COMPANY, priority 2013, dated 2017).

Key:
giant foxtail [1] = assay: Test A postemergence; assay type: in vivo, Setaria faberii; settings: for Foxtail, Giant plant response rating: 125 g ai/ha
Method in brief: (§1)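 Compounds in non-phytotoxic solvent with surfactant applied as soil spray preemergence, or postemergence to plants 2-10 cm at one- to two-leaf stage, in loam/sand. After approximately 10 days in greenhouse, injury rated visually versus untreated controls, 0 (no effect) to 100 (complete control).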

galium = assay: Test A postemergence; assay type: in vivo, Galium aparine; settings: for Galium plant response rating: 125 g ai/ha
Method in brief: as §1

pigweed [2] = assay: Test A preemergence; assay type: in vivo, Amaranthus retroflexus
Method in brief: as §1

blackgrass = assay: Test A postemergence; assay type: in vivo, Alopecurus myosuroides; settings: for Blackgrass plant response rating: 125 g ai/ha
Method in brief: as §1

kochia [3] = assay: Test A postemergence; assay type: in vivo, Kochia scoparia; settings: for Kochia plant response rating: 125 g ai/ha
Method in brief: as §1

pigweed [4] = assay: Test A postemergence; assay type: in vivo, Amaranthus retroflexus; settings: for Pigweed plant response rating: 125 g ai/ha
Method in brief: as §1

barnyardgrass [5] = assay: Test B flooded paddy test; assay type: in vivo, Echinochloa crus-galli; settings: Flood, 250 g ai/ha; 0 to 100 scale where 0 is no effect and 100 is complete control
Method in brief: (§2)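 Plants were grown to the 2-leaf stage, then pots were flooded to 3 cm above the soil and compounds were applied directly into the paddy water. That depth was held throughout, and after 13 to 15 days in the greenhouse injury was rated visually against controls on a 0–100 scale (0 no effect, 100 complete control).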

Heteranthera limosa = assay: Test B flooded paddy test; assay type: in vivo; settings: Flood, 250 g ai/ha; 0 to 100 scale where 0 is no effect and 100 is complete control
Method in brief: as §2

rice = assay: Test B flooded paddy test; assay type: in vivo, Oryza sativa; settings: Flood, 250 g ai/ha; 0 to 100 scale where 0 is no effect and 100 is complete control
Method in brief: as §2

ragweed [6] = assay: Test A preemergence; assay type: in vivo, Ambrosia elatior
Method in brief: as §1

kochia [7] = assay: Test A preemergence; assay type: in vivo, Kochia scoparia
Method in brief: as §1

wheat = assay: Test A postemergence; assay type: in vivo, Triticum aestivum; settings: for Wheat plant response rating: 125 g ai/ha
Method in brief: as §1

giant foxtail [8] = assay: Test A preemergence; assay type: in vivo, Setaria faberii
Method in brief: as §1

corn = assay: Test A postemergence; assay type: in vivo, Zea mays; settings: for Corn plant response rating: 125 g ai/ha
Method in brief: as §1

barnyardgrass [9] = assay: Test A preemergence; assay type: in vivo, Echinochloa crus-galli
Method in brief: as §1

barnyardgrass [10] = assay: Test A postemergence; assay type: in vivo, Echinochloa crus-galli; settings: for Barnyardgrass plant response rating: 125 g ai/ha
Method in brief: as §1

Italian ryegrass [11] = assay: Test A preemergence; assay type: in vivo, Lolium multiflorum
Method in brief: as §1

Italian ryegrass [12] = assay: Test A postemergence; assay type: in vivo, Lolium multiflorum; settings: for Ryegrass, Italian plant response rating: 125 g ai/ha
Method in brief: as §1

sedge, umbrella = assay: Test B flooded paddy test; assay type: in vivo, Cyperus difformis; settings: Flood, 250 g ai/ha; 0 to 100 scale where 0 is no effect and 100 is complete control
Method in brief: as §2

ragweed [13] = assay: Test A postemergence; assay type: in vivo, Ambrosia elatior; settings: for Ragweed plant response rating: 125 g ai/ha
Method in brief: as §1

[14] = 31 g ai/ha, 0 to 100 scale, 0 no effect, 100 complete control
[15] = 0 to 100 scale where 0 is no effect and 100 is complete control
[16] = 125 g ai/ha, 0 to 100 scale where 0 is no effect and 100 is complete control
[17] = 31 g ai/ha, 0 to 100 scale where 0 is no effect and 100 is complete control, visual, approximately 10 days
[18] = 500 g ai/ha, 0 to 100 scale where 0 is no effect and 100 is complete control

Compound | Foxtail, Giant plant response rating (giant foxtail [1]; [15]) | Galium plant response rating (galium; [15]) | Plant response rating, Pigweed (pigweed [2]; [16]) | Blackgrass plant response rating (blackgrass; [15]) | Kochia plant response rating (kochia [3]; [15]) | Pigweed plant response rating (pigweed [4]; [15]) | Plant response rating, Barnyardgrass (barnyardgrass [5]) | Plant response rating, Ducksalad (Heteranthera limosa) | Plant response rating, Rice (rice) | Plant response rating, Ragweed (ragweed [6]; [16]) | Plant response rating, Kochia (kochia [7]; [16]) | Wheat plant response rating (wheat; [15]) | Plant response rating, Foxtail, Giant (giant foxtail [8]; [16]) | Corn plant response rating (corn; [15]) | Plant response rating, Barnyardgrass (barnyardgrass [9]; [16]) | Barnyardgrass plant response rating (barnyardgrass [10]; [15]) | Plant response rating, Ryegrass, Italian (Italian ryegrass [11]; [16]) | Ryegrass, Italian plant response rating (Italian ryegrass [12]; [15]) | Plant response rating, Sedge, Umbrella (sedge, umbrella) | Ragweed plant response rating (ragweed [13]; [15]) | further results
FCc1cccc(Oc2ncc(Br)cn2)c1-n1cc(Br)cn1 [Compound 125] | 80 | 90 | 100 | 80 | 40 | 70 | 0 | 70 | 0 | 10 | 50 | 20 | 100 | 50 | 80 | 90 | 20 | 10 | 70 | 10 | Plant response rating, Foxtail, Giant (giant foxtail [1]; [14]): 0; Plant response rating, Galium (galium; [14]): 20; Pigweed plant response rating (0 to 100 scale) (pigweed [2]; 31 g ai/ha): 70; Plant response rating, Blackgrass (blackgrass; [14]): 40; Plant response rating, Kochia (kochia [3]; [14]): 40; Plant response rating, Pigweed (pigweed [4]; [14]): 30; Ragweed plant response rating (0 to 100 scale) (ragweed [6]; 31 g ai/ha): 0; Kochia plant response rating (0 to 100 scale) (kochia [7]; 31 g ai/ha): 20; Plant response rating, Wheat (wheat; [14]): 0; Foxtail, Giant plant response rating (0 to 100 scale) (giant foxtail [8]; 31 g ai/ha): 20; Plant response rating, Corn (corn; [14]): 20; Barnyardgrass plant response rating (0 to 100 scale) (barnyardgrass [9]; 31 g ai/ha): 10; Plant response rating, Barnyardgrass (barnyardgrass [10]; [14]): 0; Ryegrass, Italian plant response rating (0 to 100 scale) (Italian ryegrass [11]; 31 g ai/ha): 0; Plant response rating, Ryegrass, Italian (Italian ryegrass [12]; [14]): 0; Plant response rating, Ragweed (ragweed [13]; [14]): 0
Fc1cnc(Oc2cccc(F)c2-n2cc(OCC(F)(F)F)cn2)nc1 [Compound 126] | 50 | 60 | 100 | 20 | 100 | 80 | 0 | 65 | 0 | 20 | 90 | 10 | 100 | 20 | 80 | 40 | 0 | 10 | 20 | 50 | Plant response rating, Foxtail, Giant (giant foxtail [1]; [14]): 10; Plant response rating, Galium (galium; [14]): 20; Pigweed plant response rating (0 to 100 scale) (pigweed [2]; 31 g ai/ha): 80; Plant response rating, Blackgrass (blackgrass; [14]): 10; Plant response rating, Kochia (kochia [3]; [14]): 40; Plant response rating, Pigweed (pigweed [4]; [14]): 50; Ragweed plant response rating (0 to 100 scale) (ragweed [6]; 31 g ai/ha): 0; Kochia plant response rating (0 to 100 scale) (kochia [7]; 31 g ai/ha): 40; Plant response rating, Wheat (wheat; [14]): 0; Foxtail, Giant plant response rating (0 to 100 scale) (giant foxtail [8]; 31 g ai/ha): 50; Plant response rating, Corn (corn; [14]): 0; Barnyardgrass plant response rating (0 to 100 scale) (barnyardgrass [9]; 31 g ai/ha): 10; Plant response rating, Barnyardgrass (barnyardgrass [10]; [14]): 10; Ryegrass, Italian plant response rating (0 to 100 scale) (Italian ryegrass [11]; 31 g ai/ha): 0; Plant response rating, Ryegrass, Italian (Italian ryegrass [12]; [14]): 0; Plant response rating, Ragweed (ragweed [13]; [14]): 10
FC(F)(F)COc1cnn(-c2c(Br)cccc2Oc2ncc(Cl)cn2)c1 [Compound 128] | 60 | 80 | 100 | 40 | 80 | 100 | 0 | 85 | 0 | 0 | 70 | 10 | 100 | 30 | 70 | 50 | 10 | 30 | 85 | 20 | Plant response rating, Foxtail, Giant (giant foxtail [1]; [14]): 20; Plant response rating, Galium (galium; [14]): 50; Plant response rating, Pigweed (pigweed [2]; [17]): 100; Plant response rating, Blackgrass (blackgrass; [14]): 30; Plant response rating, Kochia (kochia [3]; [14]): 50; Plant response rating, Pigweed (pigweed [4]; [14]): 80; Plant response rating, Ragweed (ragweed [6]; [17]): 0; Plant response rating, Kochia (kochia [7]; [17]): 0; Plant response rating, Wheat (wheat; [14]): 0; Plant response rating, Foxtail, Giant (giant foxtail [8]; [17]): 60; Plant response rating, Corn (corn; [14]): 0; Plant response rating, Barnyardgrass (barnyardgrass [9]; [17]): 10; Plant response rating, Barnyardgrass (barnyardgrass [10]; [14]): 10; Plant response rating, Ryegrass, Italian (Italian ryegrass [11]; [17]): 0; Plant response rating, Ryegrass, Italian (Italian ryegrass [12]; [14]): 0; Plant response rating, Ragweed (ragweed [13]; [14]): 0
CCCc1cnc(Oc2cccc(C#N)c2-n2cc(Br)cn2)nc1 [Compound 131] | 0 | 0 | 0 | 0 | 0 | 0 | 0 | 0 | 0 | 0 | 0 | 0 | 0 | 0 | 0 | 0 | 0 | 0 | 0 | 0 | Plant response rating, Foxtail, Giant (giant foxtail [1]; [18]): 0; Plant response rating, Galium (galium; [18]): 0; Pigweed plant response rating (pigweed [2]; [18]): 0; Plant response rating, Blackgrass (blackgrass; [18]): 0; Plant response rating, Kochia (kochia [3]; [18]): 0; Plant response rating, Pigweed (pigweed [4]; [18]): 0; Ragweed plant response rating (ragweed [6]; [18]): 0; Kochia plant response rating (kochia [7]; [18]): 0; Plant response rating, Wheat (wheat; [18]): 0; Foxtail, Giant plant response rating (giant foxtail [8]; [18]): 0; Plant response rating, Corn (corn; [18]): 0; Barnyardgrass plant response rating (barnyardgrass [9]; [18]): 0; Plant response rating, Barnyardgrass (barnyardgrass [10]; [18]): 0; Ryegrass, Italian plant response rating (Italian ryegrass [11]; [18]): 0; Plant response rating, Ryegrass, Italian (Italian ryegrass [12]; [18]): 0; Plant response rating, Ragweed (ragweed [13]; [18]): 0
